These results are taken from PMC3532720, “A Sugar Gustatory Receptor Identified from the Foregut of Cotton Bollworm Helicoverpa armigera” (Journal of Chemical Ecology, 2012).

As usually defined, the EC50 is the concentration that produces a half-maximal response.

The target in the test is T1, HaGR9 (Helicoverpa armigera, UniProt L0C9V2).
T1 construct: gene GR9; native full-length receptor, 465 residues, untagged, cDNA from larval foregut, transiently expressed in Spodoptera frugiperda Sf9 cells, no co-receptor co-transfected
T1 sequence (L0C9V2 1-465): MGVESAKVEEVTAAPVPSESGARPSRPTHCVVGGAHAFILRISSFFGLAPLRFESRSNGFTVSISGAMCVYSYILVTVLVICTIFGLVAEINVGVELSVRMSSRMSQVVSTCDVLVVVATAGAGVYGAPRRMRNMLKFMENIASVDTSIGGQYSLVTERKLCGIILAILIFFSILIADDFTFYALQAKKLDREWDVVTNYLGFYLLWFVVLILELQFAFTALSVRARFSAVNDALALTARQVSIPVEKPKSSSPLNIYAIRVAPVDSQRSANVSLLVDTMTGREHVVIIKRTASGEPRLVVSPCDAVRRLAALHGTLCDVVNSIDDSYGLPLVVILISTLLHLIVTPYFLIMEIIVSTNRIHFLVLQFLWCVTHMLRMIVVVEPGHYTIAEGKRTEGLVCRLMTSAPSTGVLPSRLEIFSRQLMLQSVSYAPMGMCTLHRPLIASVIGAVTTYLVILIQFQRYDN
Description: calcium imaging, transfected Sf9 cells. It is filed as cell-based. Particulars: agonist; dose range 5 to 50 mM; HBSS buffer; control-cell response subtracted; Sf9 cells have endogenous sugar responses.

Regarding `OC[C@H]1O[C@H](O[C@H]2[C@H](O)[C@@H](O)C(O)O[C@@H]2CO)[C@H](O)[C@@H](O)[C@@H]1O` (stereo partly drawn) [D-maltose], the EC50 is 16.5 ± 1.3 mM.

On to `OC[C@H]1OC(O)[C@H](O)[C@@H](O)[C@H]1O` (stereo partly drawn) [D-galactose], for which the EC50 came to 21.3 ± 1.1 mM.

For `OCC1(O)OC[C@@H](O)[C@@H](O)[C@@H]1O` (stereo partly drawn) [D-fructose], the EC50 was 21.5 ± 1.1 mM.
